Results: patent US6596721B2, “Stable crystalline (6R) -tetrahydrofolic acid” (Eprova AG, priority 1994, dated 2003)

Test: Stability on storage under severe conditions at 60° C. in the air (remaining tetrahydrofolic acid content by HPLC, colour)
Format: physicochemical
Settings: for Colour / discoloration: after a prolonged test period at 60° C. in the air
Description: The tetrahydrofolic acid contents and the isomer contents given in the following examples were in each case determined by HPLC. All tetrahydrofolic acid contents are based on the anhydrous substance.
To determine the stability of crystalline (6S)- and (6R)-tetrahydrofolic acid, the substances together with comparison samples were stored under severe conditions at 60° C. in the air. The remaining tetrahydrofolic acid content was measured at periodic intervals and is shown in comparison with the initial value.
In contrast, the other products which are included for comparison reasons discolor rapidly to a high degree.
The substances employed for the stability tests were prepared as follows:
crystalline (6S)-tetrahydrofolic acid as in Example 6 of the present patent application crystalline (6R)-tetrahydrofolic acid as in Example 9 of the present patent application “Yamanouchi's crystalline (6R,S)-tetrahydrofolic acid” as in DE-OS 2 323 124, Example 3
amorphous (6S)-tetrahydrofolic acid (6S)-tetrahydrofolic acid is dissolved in acetic acid and precipitated using diethyl ether
amorphous (6R)-tetrahydrofolic acid (6R)-tetrahydrofolic acid is dissolved in acetic acid and precipitated using diethyl ether
amorphous (6R,S)-tetrahydrofolic acid (6R,S)-tetrahydrofolic acid is dissolved in acetic acid and precipitated using diethyl ether.

[1] = 0 days (initial value), 60° C. in air

SMILES | Remaining tetrahydrofolic acid content in comparison with the initial value [1] | Remaining tetrahydrofolic acid content in comparison with the initial value (2 days at 60° C. in air) | Remaining tetrahydrofolic acid content in comparison with the initial value (13 days at 60° C. in air) | Remaining tetrahydrofolic acid content in comparison with the initial value (21 days at 60° C. in air) | Remaining tetrahydrofolic acid content in comparison with the initial value (0 h) | Remaining tetrahydrofolic acid content in comparison with the initial value (48 h) | Remaining tetrahydrofolic acid content in comparison with the initial value (144 h) | Remaining tetrahydrofolic acid content in comparison with the initial value (312 h) | Remaining tetrahydrofolic acid content in comparison with the initial value (504 h) | Remaining tetrahydrofolic acid content in comparison with the initial value (1368 h) | Colour / discoloration | Remaining tetrahydrofolic acid content in comparison with the initial value (6 days at 60° C. in air) | Remaining tetrahydrofolic acid content in comparison with the initial value (28 days at 60° C. in air) | Remaining tetrahydrofolic acid content in comparison with the initial value (57 days at 60° C. in air) | Remaining tetrahydrofolic acid content in comparison with the initial value (360 days at 60° C. in air)
Nc1nc2c(c(=O)[nH]1)N[C@H](CNc1ccc(C(=O)N[C@@H](CCC(=O)O)C(=O)O)cc1)CN2 (mixture of isomers) [amorphous (6R,S)-tetrahydrofolic acid, (6R,S)-tetrahydrofolic acid] | 100.0% | 53.4% | 17.4% | 13.2% | – | – | – | – | – | – | – | – | – | – | –
Nc1nc2c(c(=O)[nH]1)N[C@@H](CNc1ccc(C(=O)N[C@@H](CCC(=O)O)C(=O)O)cc1)CN2 [Amorphous (6S)-tetrahydrofolic acid, (6S)-tetrahydrofolic acid] | 100.0% | 60.4% | 13.7% | 7.9% | – | – | – | – | – | – | – | – | – | – | –
Nc1nc(=O)c2c([nH]1)NC[C@@H](CNc1ccc(C(=O)N[C@@H](CCC(=O)O)C(=O)O)cc1)N2 [Crystalline (6R)-tetrahydrofolic acid, N-[4-[[(2-amino-1,4,5,6,7,8-hexahydro-4-oxo-(6R)-pteridinyl)methyl]amino]benzoyl]-Lglutamic acid] | – | – | – | – | 100.0% | 96.4% | 96.1% | 93.3% | 92.7% | 82.0% | remain very pale, almost white | – | – | – | –

The remaining lines, values ahead:

Remaining tetrahydrofolic acid content in comparison with the initial value [1] | Remaining tetrahydrofolic acid content in comparison with the initial value (2 days at 60° C. in air) | Remaining tetrahydrofolic acid content in comparison with the initial value (13 days at 60° C. in air) | Remaining tetrahydrofolic acid content in comparison with the initial value (21 days at 60° C. in air) | Remaining tetrahydrofolic acid content in comparison with the initial value (0 h) | Remaining tetrahydrofolic acid content in comparison with the initial value (48 h) | Remaining tetrahydrofolic acid content in comparison with the initial value (144 h) | Remaining tetrahydrofolic acid content in comparison with the initial value (312 h) | Remaining tetrahydrofolic acid content in comparison with the initial value (504 h) | Remaining tetrahydrofolic acid content in comparison with the initial value (1368 h) | Colour / discoloration | Remaining tetrahydrofolic acid content in comparison with the initial value (6 days at 60° C. in air) | Remaining tetrahydrofolic acid content in comparison with the initial value (28 days at 60° C. in air) | Remaining tetrahydrofolic acid content in comparison with the initial value (57 days at 60° C. in air) | Remaining tetrahydrofolic acid content in comparison with the initial value (360 days at 60° C. in air) | SMILES
100.0% | 100.1% | 98.7% | 103.6% | – | – | – | – | – | – | remain very pale, almost white | 102.5% | 103.1% | 101.2% | 93.3% | Nc1nc2c(c(=O)[nH]1)N[C@@H](CNc1ccc(C(=O)N[C@@H](CCC(=O)O)C(=O)O)cc1)CN2 [Crystalline (6S)-tetrahydrofolic acid, (6S)-tetrahydrofolic acid]
100.0% | 83.6% | 48.6% | 31.0% | – | – | – | – | – | – | – | – | – | 13.4% | – | Nc1nc2c(c(=O)[nH]1)N[C@H](CNc1ccc(C(=O)N[C@@H](CCC(=O)O)C(=O)O)cc1)CN2 [Yamanouchi's crystalline (6R,S)-tetrahydrofolic acid]
100.0% | 70.5% | 29.1% | 21.6% | – | – | – | – | – | – | – | – | – | 9.8% | – | Nc1nc2c(c(=O)[nH]1)N[C@H](CNc1ccc(C(=O)N[C@@H](CCC(=O)O)C(=O)O)cc1)CN2 [amorphous (6R)-tetrahydrofolic acid, (6R)-tetrahydrofolic acid]
